This note sets out measurements from ChEMBL document CHEMBL3507680, “University of Dundee, Gates Library screen for HepG2 cell viability”.

This series is described as follows: Human HepG2 cell viability assay in 384 well format. The format is toxicity, cell-based. Further details: dose 125 nL, time 70.5 hour; concentration not given beside the values. The note with it: HepG2 cells, read-out: Inhibition.

In the case of `O=C(c1nc(Cc2c[nH]c3ccccc23)no1)N1CCCCC1`, the cytotoxicity at 70.5 h was -7.41%.
The same measure for `CCCc1nc2c(c(C)c(C)n2CCN(C)C)c(N)c1CC`: 3.64%.
The same measure for `Cc1cc(C)n2c(CCCNS(=O)(=O)c3cccs3)nnc2n1`: -10.2%; for `CCc1c(-c2ccccc2)nc2c(c(C)c(C)n2CCN(C)C)c1N`: 15.2%; for `COC(=O)CNC(=O)Cn1ccc2ccc(F)cc21`: -3.86%.
The same measure for `Cc1c(-c2ccccc2)nc2c(c(C)c(C)n2CCN(C)C)c1N`: 13.6%; for `COc1cccc(-c2nc(C)c(C(=O)N[C@H](CO)CC(C)C)s2)c1`: -22.7%.
For the compound `CC(C)Cc1nc(OCC(N)=O)c(C#N)c2c1CCCC2`, the cytotoxicity at 70.5 h was -9.41%.
The same measure for `COCCNC(=O)Cn1ccc2ccc(F)cc21`: -3.63%.
The same measure for `CC[C@H](C)[C@H](NC(=O)Cn1ccc2ccc(F)cc21)C(=O)OC`: -1.27%.
Consider `O=C1CCCC2=C1C(c1ccc(F)cc1F)Nc1nonc1N2` (stereo not drawn), for which the cytotoxicity at 70.5 h stood at 12.1%.
Consider `CC(C)CNC(=O)c1nc(COc2ccc3c(c2)OCO3)no1`, for which the cytotoxicity at 70.5 h was -7.9%.
The same measure for `CC[C@H](C)[C@H](NC(=O)c1cccc(-n2cnnn2)c1)C(=O)OC`: -11%.
The same measure for `O=C(Cc1csc(-c2ccccc2F)n1)NCc1ccc(C(=O)O)cc1`: -10.6%; for `CC(C)CC(NC(=O)c1ccco1)c1nnc2ccccn12` (stereo not drawn): -24.3%; for `O=C(NCCN1CCOCC1)c1nc2ccccc2c(=O)[nH]1`: -23.1%.
In the case of `CNC(=O)c1nc(COc2ccc3c(c2)OCO3)no1` it was -9.82%; in that of `CCC(C)[C@H](NC(=O)c1ccc(F)cc1-n1cnnn1)C(=O)OC` (stereo partly drawn), -10.7%.
Turning to `CC(=O)Nc1ccc(OCc2noc(C(=O)N3CCCCC3)n2)cc1`, the cytotoxicity at 70.5 h is -18.1%.
The same measure for `CC(C)NC(=O)Cc1cnc(-n2cccc2)s1`: -24.2%; for `Cn1nnnc1SC1CCc2ccccc2NC1=O` (stereo not drawn): -24.7%.
In the case of `O=C(NC1CC1)c1nc(COc2ccc3c(c2)OCO3)no1` it was -9.12%; in that of `COCCNC(=O)c1cc(-n2cccc2)ccc1Cl`, -23.7%; in that of `CN1C(=O)C2(CC(=O)Nc3[nH]ncc32)c2cc(F)ccc21` (stereo not drawn), -19.4%.
In the case of `COc1ccc(N2Cc3nc(=O)n(Cc4cccc(F)c4)n3C2=O)cc1` it was -13%; in that of `O=S1(=O)CCC(S(=O)(=O)c2cccc(S(=O)(=O)N3CCCCCC3)c2)C1` (stereo not drawn), -10.9%; in that of `CN1C(=O)C2(CC(=O)Nc3c2cnn3C(C)(C)C)c2c(Cl)cccc21` (stereo not drawn), -19.1%.
`O=C(NCCc1c[nH]cn1)c1ccc2c(c1)C(=O)N(C1CCCC1)C2=O`: the cytotoxicity at 70.5 h is -1.68%.
The same measure for `N#Cc1nc(COc2ccc3c(c2)OCO3)oc1NC1CCCCC1`: -28.5%; for `CC(C)CCN1C(=O)c2ccc(C(=O)NCCc3c[nH]cn3)cc2C1=O`: -4.63%; for `Cc1cccc2c1N(C)C(=O)C21CC(=O)Nc2c1cnn2C(C)(C)C` (stereo not drawn): -18.4%.
The same measure for `CC(C)[C@H](NC(=O)NC1CCS(=O)(=O)C1)C(=O)NCc1ccc(Cl)cc1` (stereo partly drawn): -18.2%.
In the case of `COCCNc1nc(N2CCCC2)nc2nccnc12` it was 26.5%; in that of `Cc1cc(C)n(Cc2ccc(-c3noc(C(=O)NCCO)n3)cc2)n1`, -18.6%; in that of `Cc1occc(=O)c1OCc1noc(C(=O)NC2CCCC2)n1`, -16.2%.
As to `Cn1cnnc1SC1CCc2ccccc2NC1=O` (stereo not drawn), the cytotoxicity at 70.5 h was -20.5%.
In the case of `COCCCN1C(=O)c2ccc(C(=O)NCCc3c[nH]cn3)cc2C1=O` it was 1.41%; in that of `COc1cc2c(cc1OC)C(=O)C(Sc1nncn1C)C2` (stereo not drawn), -4.34%; in that of `CNC(=O)c1nc(CC(=O)Nc2cccc(C(F)(F)F)c2)no1`, 22.3%.
In the case of `CC[C@@H](C)[C@H](NC(=O)NC1CCS(=O)(=O)C1)C(=O)NCc1ccncc1` (stereo partly drawn) it was 10.2%; in that of `CC(C)[C@H](NC(=O)NC1CCS(=O)(=O)C1)C(=O)NCc1ccccc1` (stereo partly drawn), -19%; in that of `COC(=O)[C@@H](NC(=O)c1snnc1-c1ccc(OC)cc1)C(C)C`, 11.1%.
In the case of `CCc1c(C)sc2nc3n(CCN(C)C)nc(SC)n3c(=O)c12` it was 20.8%; in that of `CCN(CC)C(=O)CSc1sc2c(O)cc(=O)[nH]c2c1C(N)=O`, -14.3%; in that of `CCOC(=O)c1nc(CC(=O)Nc2ccc3cc[nH]c3c2)no1`, -9.72%.
On to `Cc1nc(NC(=O)c2c(-n3cnnn3)sc3c2CCCC3)sc1C`, for which the cytotoxicity at 70.5 h was -10.4%.
Consider `CNC(=O)c1nc(CC(=O)Nc2ccc3cc[nH]c3c2)no1`, for which the cytotoxicity at 70.5 h is -13.1%.
For the compound `CC(C)(C)c1ncc(C(=O)NCCNS(C)(=O)=O)s1`, the cytotoxicity at 70.5 h is -7.98%.
In the case of `NC(=O)CC1CCN(C(=O)NCc2ccc(-c3ccn[nH]3)cc2)CC1` it was -11.3%; in that of `CN(CCCOc1ccccc1)Cc1nc2c(cnn2C)c(=O)[nH]1`, -1.06%; in that of `COC(=O)c1ccc(N2CCN(CCS(C)(=O)=O)C(C)C2)cc1` (stereo not drawn), -3.48%.
Take `CCN1CCN(C(=O)NCc2cc[nH]n2)CC1`: the cytotoxicity at 70.5 h was -8.83%.
Turning to `COc1c(CNC2CCN(c3ncccn3)CC2)c(C)nn1C`, the cytotoxicity at 70.5 h is -8.59%.
In the case of `Cn1cc(C2CCCN2C(=O)c2ccc(OCC3CC3)nc2)cn1` (stereo not drawn) it was -4.15%.
In the case of `Cn1ccnc1CN1CCCN(C(=O)c2ccc3ccccc3c2)CC1` it was 1.95%; in that of `CN(C)c1cc(C(=O)N2CCCN(Cc3nccn3C)CC2)ccn1`, 14.3%; in that of `Cc1cccc(NS(=O)(=O)c2cc3c(c(C(=O)O)c2)OCCO3)c1`, -7.67%.
In the case of `CC(C)Oc1ccc(C(=O)N2CCCC2c2cnn(C)c2)cn1` (stereo not drawn) it was -3%.
Take `CC(C)c1ncc2c(n1)CN(CC(=O)Nc1ccncc1)CC2`: the cytotoxicity at 70.5 h is -7.98%.
In the case of `Cn1ccnc1CN1CCCN(C(=O)c2ccc3cc[nH]c3c2)CC1` it was -7.08%; in that of `Cc1ncc2c(n1)CN(CC(=O)Nc1nccs1)CC2`, -10.4%; in that of `CN(CC(=O)Nc1ccncc1)C1CCCN(c2cccnn2)C1` (stereo not drawn), -3.61%.
In the case of `O=C(NCCOc1ccc2c(c1)OCO2)C1CC(=O)N(C2CC2)C1` (stereo not drawn) it was 3.82%; in that of `CSc1nccn1-c1cccc(C(=O)NCCN2CCS(=O)(=O)CC2)c1`, 0.708%.
In the case of `CSc1nccn1-c1cccc(C(=O)NCC(F)(F)F)c1` it was -0.984%; in that of `CCC1CCCCN1Cc1nc2c(cnn2C)c(=O)[nH]1` (stereo not drawn), -0.935%.
For the compound `CCCNC(=O)C(C)N1CCC(C(=O)Nc2cnn(CC)c2)CC1` (stereo not drawn), the cytotoxicity at 70.5 h was -4.58%.
Turning to `CCn1cc(NC(=O)C2CCN(CC(=O)NCC(C)C)CC2)cn1`, the cytotoxicity at 70.5 h is -5.15%.
In the case of `Cc1cc(C)n(CC2CN(c3ccc(C#N)cn3)CCO2)n1` (stereo not drawn) it was -3.22%; in that of `NC(=O)CC1CCCCN1C(=O)c1cccc(C(F)(F)F)c1` (stereo not drawn), -0.919%.
The same measure for `Cc1ccc(C(=O)N2CCCCC2CNC(N)=O)cc1F` (stereo not drawn): 0.819%; for `Cc1cccc(-c2nc(CNC3CCc4ncnn4C3)no2)c1` (stereo not drawn): -4.91%; for `c1ccc(-c2nc(CNC3CCc4ncnn4C3)no2)cc1` (stereo not drawn): -3.91%.
With `Cc1nccn1C1CCCN(C(=O)c2ccc(N(C)C)nn2)C1` (stereo not drawn), the cytotoxicity at 70.5 h is -4.18%.
In the case of `Cc1nccn1C1CCCN(C(=O)c2ccc(-n3cccn3)nc2)C1` (stereo not drawn) it was 0.896%; in that of `COc1ccccc1OCCC(=O)N1CCCC1Cn1cccn1` (stereo not drawn), 2.97%; in that of `O=C(CCOc1ccc(F)cc1)N1CCCC1Cn1cccn1` (stereo not drawn), -2.78%.
In the case of `Cn1cc(-c2nc(C(=O)N3CCCC3Cn3cccn3)cs2)cn1` (stereo not drawn) it was -4.01%; in that of `CCCc1n[nH]c(C2CN(C(=O)c3n[nH]c4ccccc34)CCO2)n1` (stereo not drawn), -6.7%.
Regarding `CCCc1n[nH]c(C2CN(C(=O)c3ccc4c(c3)COC4)CCO2)n1` (stereo not drawn), the cytotoxicity at 70.5 h was -4.22%.
Consider `CCCc1n[nH]c(C2CN(C(=O)c3ccc(C)[nH]c3=O)CCO2)n1` (stereo not drawn), for which the cytotoxicity at 70.5 h was determined as 15.4%.
Turning to `CSc1nccn1-c1ccc(C(=O)NCC2CC2)cc1`, the cytotoxicity at 70.5 h is -4.68%.
The same measure for `O=C(c1csc(C2CC2)n1)N1CCCC1Cn1cccn1` (stereo not drawn): 0.252%.
Turning to `COCCN1CCC(CNC(=O)C2(c3cccc(C)c3)CC2)C1` (stereo not drawn), the cytotoxicity at 70.5 h was 17.2%.
`COc1c(CNCCC(=O)NC2CCCC2)c(C(C)C)nn1C`: the cytotoxicity at 70.5 h worked out at 0.44%.
In the case of `CCOc1ccccc1C1=CCN(C(=O)C2CCN(C)C(=O)C2)CC1` (stereo not drawn) it was 16.3%.
The same measure for `CCc1cnc(CN(C(C)=O)C2CCN(CCc3ccccn3)C2)o1` (stereo not drawn): 1.82%.
The same measure for `Cc1cccc(OCCNC(=O)CN2CCCC2Cn2cncn2)c1` (stereo not drawn): -4.68%; for `O=C(CN1CCCCC1Cn1cncn1)NCCOc1ccccc1` (stereo not drawn): -1.79%; for `CCOc1cc(C(=O)N2CCCC(c3noc(CC)n3)C2)ccn1` (stereo not drawn): -2.83%.
Take `COc1ccc(C(=O)N(Cc2cnn(C)c2)C(C)C)cc1OC(F)F`: the cytotoxicity at 70.5 h was -3.59%.
The same measure for `CCOc1cc(C(=O)N2CCCC(c3nc(C)c(C)s3)C2)ccn1` (stereo not drawn): 3.48%; for `Cc1nc(C2CCCN2Cc2ccc(S(=O)(=O)N(C)C)o2)no1` (stereo not drawn): -5.97%; for `CC(C)CCc1nc(CN2CCOC(Cn3cncn3)C2)cs1` (stereo not drawn): -2.95%.
In the case of `O=C(CS(=O)(=O)Cc1cc(Cl)c2c(c1)OCO2)N1CCCCCC1` it was -2.51%.
The same measure for `COc1ccc(C2=CCN(C(=O)C3CCS(=O)(=O)C3)CC2)cc1` (stereo not drawn): 19.4%.
As to `CNS(=O)(=O)c1ccc(C(=O)N2CCCC2c2ccncc2)o1` (stereo not drawn), the cytotoxicity at 70.5 h was -2.81%.
For the compound `Cc1cc(C2CCCN2Cc2ccc(S(=O)(=O)N(C)C)o2)on1` (stereo not drawn), the cytotoxicity at 70.5 h is -1.52%.
